From patent US5034510A, “Antibacterial substance” (Shin-Etsu Chemical Co., Ltd., priority 1986, dated 1991)
Where no end group is shown, it is not given here.

Legend:
Experiment in all cases: MIC by broth dilution method
Assay type in all cases: cell-based
[1] = tested on: Bacillus subtilis PCI 219; conditions: B. sub 219
Protocol: (§1) Using the substances finally obtained in the above-described Experiments 35 to 42 and having no blocking group, MIC (minimum growth inhibitory concentration) against various bacteria was examined according to the broth dilution method, and the antibacterial activities were evaluated.
(§2) H--(1-23)--NH(CH2)7 CH3 was synthesized according to the same procedures as described in Experiments 1 to 35, and the antibacterial activities thereof against various bacteria were examined in the same manner as in Example 1.

[2] = tested on: E. coli JC-2
Protocol: as §1, §2

[3] = tested on: Enterobacter aerogenes IFO 13545; conditions: E. aero 13534
Protocol: as §1, §2

[4] = tested on: Escherichia coli D 21
Protocol: as §1, §2

[5] = tested on: Escherichia coli NIHJ; conditions: E. coli NIHJ
Protocol: as §1, §2

[6] = tested on: Micrococcus luteus ML II; conditions: M. lute ML II
Protocol: as §1, §2

[7] = tested on: Proteus mirabilis 1287; conditions: P. mira 1287
Protocol: as §1, §2

[8] = tested on: Proteus mirabilis 129; conditions: P. mira 129
Protocol: as §1, §2

[9] = tested on: Pseudomonas aeruginosa 99; conditions: P. aeru 99
Protocol: as §1, §2

[10] = tested on: Pseudomonas aeruginosa; conditions: P. aeru
Protocol: as §1, §2

[11] = tested on: Pseudomonas aeruguinosa OT 97; conditions: P. aeru OT 97
Protocol: as §1, §2

[12] = tested on: Salmonella enteritidis IFO 3313; conditions: S. ent 3313
Protocol: as §1, §2

[13] = tested on: Staphylococcus aureus FDA 209P; conditions: S. aure 209-P
Protocol: as §1, §2

[14] = tested on: Streptococcus hemolyticus; conditions: S. hemo
Protocol: as §1, §2

**Q.** With “RWKIFKKIEKMGRNIRDGIVKAGPAIEVLGSAKAI-NH2 [Synthetic lepidopteran A, lepidopteran A, reference compound]” as the substance, how does the MIC ([1]; Table 1) read?
**A.** 32 µg/mL

**Q.** And the MIC ([1]; Table 2)?
**A.** 32 µg/mL

**Q.** What about the MIC ([2]; Table 1) of the same substance?
**A.** 4 µg/mL

**Q.** And the MIC ([2]; Table 2)?
**A.** 4 µg/mL

**Q.** And the MIC ([3]; Table 1)?
**A.** 8 µg/mL

**Q.** What about the MIC ([3]; Table 2) of the same substance?
**A.** 8 µg/mL

**Q.** And the MIC ([4]; E. coli D 21, Table 1)?
**A.** 2 µg/mL

**Q.** And the MIC ([4]; E. coli D, Table 2)?
**A.** 2 µg/mL

**Q.** What about the MIC ([5]; Table 1) of the same substance?
**A.** 4 µg/mL

**Q.** And the MIC ([5]; Table 2)?
**A.** 4 µg/mL

**Q.** And the MIC ([6]; Table 1)?
**A.** 2 µg/mL

**Q.** And the MIC ([6]; Table 2)?
**A.** 2 µg/mL

**Q.** What about the MIC ([7]; Table 1) of the same substance?
**A.** 32 µg/mL

**Q.** And the MIC ([7]; Table 2)?
**A.** 32 µg/mL

**Q.** And the MIC ([8]; Table 1)?
**A.** 32 µg/mL

**Q.** And the MIC ([8]; Table 2)?
**A.** 32 µg/mL

**Q.** What about the MIC ([9]; Table 1) of the same substance?
**A.** 8 µg/mL

**Q.** And the MIC ([9]; Table 2)?
**A.** 8 µg/mL

**Q.** And the MIC ([10]; Table 1)?
**A.** 8 µg/mL

**Q.** And the MIC ([10]; Table 2)?
**A.** 8 µg/mL

**Q.** And the MIC ([11]; Table 1)?
**A.** 8 µg/mL

**Q.** And the MIC ([11]; Table 2)?
**A.** 8 µg/mL

**Q.** What about the MIC ([12]; Table 1) of the same substance?
**A.** 4 µg/mL

**Q.** What about the MIC ([12]; Table 2) of the same substance?
**A.** 4 µg/mL

**Q.** What about the MIC ([13]; Table 1) of the same substance?
**A.** 8 µg/mL

**Q.** What about the MIC ([13]; Table 2) of the same substance?
**A.** 125 µg/mL

**Q.** And the MIC ([14]; Table 1)?
**A.** -- (Symbol "--" is meant to be MIC > 250 mcg/ml)

**Q.** What about the MIC ([14]; Table 2) of the same substance?
**A.** -- (Symbol "--" is meant to be MIC > 250 mcg/ml)
